What was measured:
[1] = tested on: IL-1β; assay: Effect on IL-1β expression in LPS-stimulated RAW 264.7 macrophages; format: cell-based; conditions: RAW 264.7 mouse macrophages, dosed at 50 μM and 100 μM, 100 ng/ml LPS stimulation, FIG. 1
Experimental: RAW264.7 macrophages were seeded at a density of 100,000 cells/well in a 96-well plate in DMEM supplemented with 10% FBS and Penn/strep. 16 hours later, medium was aspirated and replaced with 90 μL/well of serum-free DMEM. Test compounds were brought up in 100% EtOH to a concentration of 100 mM and then diluted 1:100 in 100% FBS for a stock solution consisting of 1mM compound and 1% EtOH. These stock solutions were then diluted 1:10 in FBS supplemented with 1% EtOH to generate a 100 μM of the test compounds. 10 μL was then added to the RAW246.7 cells to generate final concentrations consisting of 10 μM of the fatty acid mycophenolate conjugate, along with vehicle only control. The compounds were allowed to pre-incubate for 2 hours before stimulation of 100 ng/ml LPS (10 μL of 1 μg/ml LPS was added to each well). Following 3 hours of LPS stimulation, cells were washed once in 1 ×PBS, aspirated dry, and flash frozen in liquid nitrogen. RNA was then isolated and converted to cDNA using the Cells to cDNA kit (Ambion) according to the manufacturer's protocol. IL-1β transcript levels were then measured using Taqman primer/probe assay sets (Applied Biosystems), normalized to GAPDH using the deltaCt method, and the data expressed relative to vehicle only control. FIG. 1 summarizes the effects of compounds I-1, I-2, I-5, and I-10 on the expression of IL-1β in RAW 264.7 mouse macrophages. All four compounds were dosed at 50 μM and 100 μM.

[2] = tested on: SLE-prone MRLlpr/lpr mice; conditions: 100 mg/kg in drinking water; cited from earlier work
[3] = tested on: systemic lupus erythematosus patients; conditions: mean dose of 1,328 mg/a day over a 1 or 2 year period; cited from earlier work
[4] = tested on: (NZB X NZW)F1 mouse model of systemic lupus erythematosus; conditions: 200 mg/kg/day over a 6 week period; cited from earlier work

Which “IL-1β expression (transcript level relative to vehicle only control)” value [1] does the source give for `CC/C=C\C/C=C\C/C=C\C/C=C\C/C=C\C/C=C\CCC(=O)NCCNC(=O)CC/C(C)=C/Cc1c(O)c2c(c(C)c1OC)COC2=O` [Compound I-1, (4Z,7Z,10Z,13Z,16Z,19Z)-N-(2((E)-6-(4-hydroxy-6-methoxy-7-methyl-3-oxo-1,3-dihydroisobenzofuran-5-yl)-4-methylhex-4-enamido)ethyl)docosa-4,7,10,13,16,19-hexaenamide] here?
The value was “statistically significant decrease in IL-1β expression”.

For `CC/C=C\C/C=C\C/C=C\C/C=C\C/C=C\C/C=C\CCC(=O)NCCOCCNC(=O)CC/C(C)=C/Cc1c(O)c2c(c(C)c1OC)COC2=O` [Compound I-2, (4Z,7Z,10Z,13Z,16Z,19Z)-N-(2-(2((E)-6-(4-hydroxy-6-methoxy-7-methyl-3-oxo-1,3-dihydroisobenzofuran-5-yl)-4-methylhex-4-enamido)ethoxy)ethyl)docosa-4,7,10,13,16,19-hexaenamide], which “IL-1β expression (transcript level relative to vehicle only control)” value [1] is on record?
Its value is “statistically significant decrease in IL-1β expression”.

For `CC/C=C\C/C=C\C/C=C\C/C=C\C/C=C\C/C=C\CCC(=O)NCCSSCCNC(=O)CC/C(C)=C/Cc1c(O)c2c(c(C)c1OC)COC2=O` [Compound I-5, (4Z,7Z,10Z,13Z,16Z,19Z)-N-(2-(2-(2-((E)-6-(4-hydroxy-6-methoxy-7-methyl-3-oxo-1,3-dihydroisobenzofuran-5-yl)-4-methylhex-4-enamido)ethyl)disulfanyl)ethyl)docosa-4,7,10,13,16,19-hexaenamide], which “IL-1β expression (transcript level relative to vehicle only control)” value [1] is on record?
Its value is “statistically significant decrease in IL-1β expression”.

With `CC/C=C\C/C=C\C/C=C\C/C=C\C/C=C\CCCC(=O)NCCNC(=O)CC/C(C)=C/Cc1c(O)c2c(c(C)c1OC)COC2=O` [Compound I-10, (5Z,8Z,11Z,14Z,17Z)-N-(2-((E)-6-(4-hydroxy-6-methoxy-7-methyl-3-oxo-1,3-dihydroisobenzofuran-5-yl)-4-methylhex-4-enamido)ethyl)icosa-5,8,11,14,17-pentaenamide] as the compound, how does the “IL-1β expression (transcript level relative to vehicle only control)” value [1] read?
The value was “statistically significant decrease in IL-1β expression”.

With `COc1c(C)c2c(c(O)c1C/C=C(\C)CCC(=O)OCCN1CCOCC1)C(=O)OC2` [mycophenolate mofetil] as the compound, how does the “survival, C3 deposition in glomeruli, albuminuria and haematuria” value [2] read?
Its value is “able to prolong survival, reduce the extent of deposition of C3 in glomeruli and reduce the occurrence of albuminuria and haematuria”.

What about the disease flares [3] of the same compound?
The disease flares was “effective in reducing disease flares”.

What about the autoimmunity and mortality [4] of the same compound?
Its autoimmunity and mortality is “able to suppress autoimmunity and mortality”.

Reference: US20110213028A1, “FATTY ACID MYCOPHENOLATE DERIVATIVES AND THEIR USES” (CATABASIS PHARMACEUTICALS, INC., priority 2010, published 2011)
